Data published in patent publication EP0394112A2, “Use of dipyrido(4,3-b)(3,4-f) indoles for the preparation of medicaments for the treatment of AIDS” (INSTITUT NATIONAL DE LA SANTE ET DE LA RECHERCHE MEDICALE …, priority 1989, dated 1990).
Read-outs that look alike come from different tables or passages of the source.

Experiments:
virus HIV 1 [1] = test: Infectivity test on PHA-stimulated peripheral lymphocytes (viral production followed by RT activity); assay type: cell-based; conditions: 12,5 ng/ml
Text: Les lymphocytes obtenus après stimulation à la PHA (Phytohémagglutinine) de cellules issues d'une cytaphérèse, ont été infectés par une dilution appropriée de virus HIV 1 afin d'obtenir un pic de production virale aux environs du quinzième jour après infection. Différentes doses du BD 40 ont été ajoutées au milieu de culture au moment de l'infection et pendant toute la culture afin de déterminer les doses toxiques et protectrices.
Pour déterminer le mécanisme d'action du composé, celui-ci a été ajouté à la culture soit pendant une période de préincubation des cellules avant infection, soit pendant toute la période de culture suivant l'infection.
Le suivi de la production virale des lymphocytes a été réalisé par dosage de l'activité de la transcriptase inverse dans la culture tous les 3 ou 4 jours.
Les résultats obtenus, avec le BD 40 à la concentration de 12,5 ng/ml, figurent sur les différentes courbes de la figure 2 qui expriment l'activité de la transcriptase inverse (RT en ordonnées) en fonction du temps en jours. • Fig. 2a : BD 40 ajouté pendant la période de préincubation des cellules avant infection. • Fig. 2b : BD 40 ajouté pendant la culture qui suit l'infection. • Fig. 2c : BD 40 ajouté à la culture, uniquement après l'infection. • Fig. 2d : Pas de BD 40. Contrôle HIV 1.

[2] = tested on: fibroblastes murins NIH - 3T3; conditions: 24 h treatment, NIH - 3T3 fibroblasts; read-out: concentrations affecting viabilité et morphologie des cellules de manière irréversible; cited from earlier work
[3] = target: T1, réverse transcriptase du virus HIV (Human immunodeficiency virus type 1 group M subtype B, UniProt P04585); test: Clinical trial: reverse transcriptase activity in blood cells of treated AIDS patients; assay type: in vivo
T1 construct: mesures de l'activité réverse transcriptase (RT) dans les cellules sanguines; from tissue; host or cells: blood cells of AIDS patients treated with BD 40
Experimental: Lors d'un essai clinique chez 12 malades souffrant d'un SIDA avéré avec sarcome de Kaposi traités par des injections de trichlorhydrate de BD 40 en perfusion à des doses comprises entre 50 et 300 mg/m²/jour par cures de 3 jours consécutifs à intervalles de 3 semaines, des mesures de l'activité réverse transcriptase (RT) dans les cellules sanguines ont été pratiquées avant administration et aux 4e et 15e jours après le début de chaque cure.
La technique de mesure est la même que celle utilisée dans les tests II et III ci-dessus. Les résultats obtenus sont les suivants : - 8 cures sont évaluables à l'égard des critères adoptés, c'est-à-dire dans la mesure où l'activité réverse transcriptase a été mesurable pour le malade considéré et où sa valeur au jour 4 de la cure est encadrée par des valeurs connues au jour 15 de la cure précédente et au jour 15 de la cure considérée; - sur ces 8 cures évaluables, dans 7 cas la valeur au jour 4 est inférieure aux valeurs qui l'encadrent indiquant l'existence d'un inhibition nette de la réverse transcriptase; - sur ces 7 cas, dans 4 d'entre eux l'activité réverse transcriptase est ramenée à 0 (ou à une valeur négligeable, non significativement différente de 0); - sur ces 7 cas, si l'on normalise les valeurs obtenues en les exprimant en % de la valeur la plus élevée mesurée pour le malade considéré, les moyennes obtenues sont les suivantes : - RT au J15 de la cure précédente : 72,3 - RT au J4 de la […] : 9,7 - RT au J15 de la cure considérée : 62,4 l'inhibition est donc très évidente au 4e jour de la cure; - ces 7 cas sont obtenus aux doses suivantes (en mg/m2/administration) 2 fois à 50, 3 fois à 200, 1 fois à 250 et 1 fois à 300.

[4] = target: T2, transcriptase inverse du virus HIV 1 (Human immunodeficiency virus type 1 group M subtype B, UniProt P04585); test: Reverse transcriptase assay (direct enzyme inhibition, synthetic primer, 3H-labelled substrate); assay type: biochemical; conditions: figure 1
T2 construct: transcriptase inverse du virus HIV 1
Text: Le trichlorhydrate de BD 40 (sel ci-après appelé "BD 40"), obtenu par réaction de la base BD 40 en phase aqueuse avec une solution aqueuse d'acide chlorhydrique, a été testé dans un premier temps en tant qu'inhibiteur direct sur l'activité enzymatique de la transcriptase inverse du virus HIV 1.
L'activité enzymatique a été testée en utilisant une amorce synthétique et un substrat radiomarqué au H³ "in vitro" en présence de différentes doses du BD 40. La quantité de matériel radiomarqué précipité, exprimée en coups par minute, est proportionnelle à l'activité de la transcriptase inverse.
Les résultats obtenus figurent sur le graphe de la figure 1, sur laquelle on a porté en ordonnées, la quantité de matériel radiomarqué en coups par minute (RT en cpm) et en abscisses les quantités de BD 40 testées.

[5] = tested on: lignée cellulaire murine D55; conditions: 24 h treatment, D55 cells; read-out: concentrations affecting viabilité et morphologie des cellules de manière irréversible; cited from earlier work
virus HIV = assay type: cell-based, virus HIV 1; conditions: for production virale des lymphocytes périphériques infectés: added at the time of infection, figure 3
Text: Ce test a été réalisé comme suit.
Les lymphocytes humains ont été isolés sur gradient de Ficoll à partir du sang périphérique d'un donneur séronégatif. Préalablement au traitement, ils ont été stimulés par la phytohémagglutinine p (PHA-p) (Difco) pendant 3 jours. Ils sont ensuite maintenus en culture dans un milieu RPMI sans glutamine (GIBCO, Réf. 041.01870M, contenant 10 % de sérum de veau fétal (FLOW, Réf. 29.101.711), 1 % de glutamine (GIBCO, Réf. 043.05030H), 1 % d'une solution d'antibiotiques (GIBCO, PSN, Réf. 043.05640H), 10 % d'une solution d'interleukine 2 (BIOTEST, Réf. 81.1020), et […] de polybrène (SIGMA, Réf. 36F.3686 P. 4515).
Du trichlorhydrate de BD 40 (sel ci-après appelé BD 40) est ajouté aux doses non toxiques de 3,2 jusqu'à 25 ng/ml en même temps que l'infection virale. La production du virus dans le surnageant est mesurée par l'activité réverse transcriptase après concentration des cellules infectées par centrifugation.
Les résultats obtenus figurent sur les courbes de la figure 3 qui donne l'activité de transcriptase inverse (RT en ordonnées) en fonction du temps pour des quantités données de BD 40.

virus HIV 1 [6] = assay type: cell-based
Text: Les macrophages ont été isolés à partir du sang périphérique par adhérence. On les a infectés par du virus HIV 1 (de 5000 à 25000 cpm (RT en cpm par ml)). 3 à 7 jours après, les macrophages ont été éclatés par congélation/décongélation et le virus a été révélé par une coculture avec une lignée lymphoblastoïde (CEM ou lymphocytes du sang périphérique).
Différentes doses de trichlorhydrate de BD 40 (ci-après BD 40) ont été testées, le produit étant ajouté au milieu de culture au moment de l'infection.

[7] = mean of 7 cases, normalised values

CCN(CC)CCCNc1nccc2c(C)c3[nH]c4ccncc4c3cc12 [BD 40]
production virale de lymphocytes infectés (virus HIV 1 [1]; added to the culture only after infection (Fig. 2c)): un pic de production virale qui reste d'un niveau plus faible que le pic obtenu en l'absence d'inhibiteur
production virale de lymphocytes infectés (virus HIV 1 [1]; present also during the culture after infection (Fig. 2b)): Le même résultat
production virale de lymphocytes infectés (virus HIV 1 [1]; present during 1 h preincubation before infection (Fig. 2a)): inhiber totalement la production virale
MCC [2]: ≥ 100 nM
clinical tolerance of the doses ([3]; 50, 200, 250 and 300 mg/m2/administration, patients): cliniquement parfaitement tolérées
RT au J4 de la cure précédente [3, 7]: 9,7 % de la valeur la plus élevée mesurée pour le malade considéré
RT au J15 de la cure considérée [3, 7]: 62,4 % de la valeur la plus élevée mesurée pour le malade considéré
RT au J15 de la cure précédente [3, 7]: 72,3 % de la valeur la plus élevée mesurée pour le malade considéré
cas où la valeur au jour 4 est inférieure aux valeurs qui l'encadrent (inhibition nette de la réverse transcriptase) ([3]; out of 8 evaluable courses, patients with AIDS and Kaposi sarcoma, infusion 50-300 mg/m²/jour, 3-day courses every 3 weeks): 7 cas
cas où l'activité réverse transcriptase est ramenée à 0 (ou à une valeur négligeable) ([3]; out of the 7 cases with inhibition): 4
activité de la transcriptase inverse du virus HIV ([4]; BD 40 concentrations 1 mg/ml to 50 µg/ml): totalement inhibée
activité de l'enzyme ([4]; from BD 40 concentration 5 µg/ml): du même niveau qu'en l'absence d'inhibiteur
MCC [5]: ≥ 100 nM
toxicity of doses for the lymphocyte culture (virus HIV): non toxiques
production virale des lymphocytes périphériques infectés (virus HIV; 25 ng/ml to 6,25 ng/ml): inhibition très importante
production virale des lymphocytes périphériques infectés (virus HIV; 3,12 ng/ml): un pic de production virale apparait d'un niveau inférieur à celui obtenu en l'absence d'inhibiteur
virus produit (virus HIV; highest non-toxic doses, up to day 42): absence totale de virus produit jusqu'au jour 42
toxicity of doses for the macrophage culture (virus HIV 1 [6]): non toxiques
retard d'apparition du virus (virus HIV 1 [6]; 10 and 15 ng/ml, added at the time of infection): 2 jours
réplication du virus (virus HIV 1 [6]; macrophages treated with BD 40, RT activity after coculture): inhibition partielle
